# Measurements taken from ChEMBL document CHEMBL2407054, “Synthesis and antimicrobial activity of imidazole and pyridine appended cholestane-based conjugates” (2013).
# Key:
# Klebsiella aerogenes = assay: Antibacterial activity against Klebsiella aerogenes (SHV-1) 1976E by M07-A9 CLSI method; type: functional
# Pseudomonas aeruginosa = assay: Antibacterial activity against Pseudomonas aeruginosa 6065Y by M07-A9 CLSI method; type: functional
# Proteus vulgaris = assay: Antibacterial activity against Proteus vulgaris 6059 by M07-A9 CLSI method; type: functional
# Klebsiella pneumoniae = assay: Antibacterial activity against Klebsiella pneumoniae 2011E by M07-A9 CLSI method; type: functional
# Salmonella typhimurium = assay: Antibacterial activity against Salmonella typhimurium ATCC 13311 by M07-A9 CLSI method; type: functional, Salmonella enterica subsp. enterica serovar Typhimurium; conditions: Salmonella enterica
# Escherichia coli = assay: Antibacterial activity against Escherichia coli ATCC 25922 by M07-A9 CLSI method; type: functional
# Bacillus licheniformis = assay: Antibacterial activity against Bacillus licheniformis EMR by M07-A9 CLSI method; type: functional
# Bacillus cereus = assay: Antibacterial activity against Bacillus cereus ATCC 27348 by M07-A9 CLSI method; type: functional
# Bacillus subtilis = assay: Antibacterial activity against Bacillus subtilis ATCC 6633 by M07-A9 CLSI method; type: functional
# Enterococcus faecalis = assay: Antibacterial activity against Enterococcus faecalis ATCC 29212 by M07-A9 CLSI method; type: functional
# Kocuria rhizophila = assay: Antibacterial activity against Micrococcus luteus ATCC 9341 by M07-A9 CLSI method; type: functional
# [1] = test system: Staphylococcus epidermidis; assay: Antibacterial activity against Staphylococcus epidermidis 887E by M07-A9 CLSI method; type: functional
# Staphylococcus aureus [2] = assay: Antibacterial activity against Staphylococcus aureus 241 by M07-A9 CLSI method; type: functional
# Staphylococcus aureus [3] = assay: Antibacterial activity against Staphylococcus aureus 77 by M07-A9 CLSI method; type: functional
# Staphylococcus aureus [4] = assay: Antibacterial activity against Staphylococcus aureus Giorgio by M07-A9 CLSI method; type: functional
# Staphylococcus aureus [5] = assay: Antibacterial activity against Staphylococcus aureus ATCC 25923 by M07-A9 CLSI method; type: functional
# Staphylococcus aureus [6] = assay: Antibacterial activity against Staphylococcus aureus ATCC 6538P by M07-A9 CLSI method; type: functional
MIC (Klebsiella aerogenes),MIC (Pseudomonas aeruginosa),MIC (Proteus vulgaris),MIC (Klebsiella pneumoniae),MIC (Salmonella typhimurium),MIC (Escherichia coli),MIC (Bacillus licheniformis),MIC (Bacillus cereus),MIC (Bacillus subtilis),MIC (Enterococcus faecalis),MIC (Kocuria rhizophila),MIC [1],MIC (Staphylococcus aureus [2]),MIC (Staphylococcus aureus [3]),MIC (Staphylococcus aureus [4]),MIC (Staphylococcus aureus [5]),MIC (Staphylococcus aureus [6]),SMILES
> 32 µg/mL,> 32 µg/mL,> 32 µg/mL,> 32 µg/mL,> 32 µg/mL,> 32 µg/mL,4 µg/mL,8 µg/mL,4 µg/mL,4 µg/mL,4 µg/mL,4 µg/mL,4 µg/mL,4 µg/mL,4 µg/mL,2 µg/mL,2 µg/mL,CC(C)CCC[C@@H](C)[C@H]1CC[C@H]2[C@@H]3[C@H](NCCCn4ccnc4)C[C@H]4C[C@H](NCCCn5ccnc5)CC[C@]4(C)[C@H]3CC[C@]12C
> 32 µg/mL,> 32 µg/mL,> 32 µg/mL,> 32 µg/mL,> 32 µg/mL,> 32 µg/mL,32 µg/mL,32 µg/mL,32 µg/mL,8 µg/mL,8 µg/mL,16 µg/mL,16 µg/mL,> 32 µg/mL,8 µg/mL,8 µg/mL,8 µg/mL,CC(C)CCC[C@@H](C)[C@H]1CC[C@H]2[C@@H]3C(=O)C[C@H]4C[C@H](NCCn5ccnc5)CC[C@]4(C)[C@H]3CC[C@]12C
> 32 µg/mL,> 32 µg/mL,> 32 µg/mL,> 32 µg/mL,> 32 µg/mL,> 32 µg/mL,32 µg/mL,16 µg/mL,8 µg/mL,32 µg/mL,8 µg/mL,16 µg/mL,32 µg/mL,8 µg/mL,8 µg/mL,8 µg/mL,8 µg/mL,CC(C)CCC[C@@H](C)[C@H]1CC[C@H]2[C@@H]3C(=O)C[C@H]4C[C@H](NCCCn5ccnc5)CC[C@]4(C)[C@H]3CC[C@]12C
> 32 µg/mL,> 32 µg/mL,> 32 µg/mL,> 32 µg/mL,> 32 µg/mL,> 32 µg/mL,32 µg/mL,32 µg/mL,32 µg/mL,16 µg/mL,16 µg/mL,16 µg/mL,32 µg/mL,16 µg/mL,16 µg/mL,16 µg/mL,8 µg/mL,CC(C)CCC[C@@H](C)[C@H]1CC[C@H]2[C@@H]3C(=O)C[C@H]4C[C@H](NCCc5cnc[nH]5)CC[C@]4(C)[C@H]3CC[C@]12C
> 32 µg/mL,> 32 µg/mL,> 32 µg/mL,> 32 µg/mL,> 32 µg/mL,> 32 µg/mL,32 µg/mL,16 µg/mL,4 µg/mL,8 µg/mL,8 µg/mL,4 µg/mL,32 µg/mL,32 µg/mL,4 µg/mL,4 µg/mL,2 µg/mL,CC(C)CCC[C@@H](C)[C@H]1CC[C@H]2[C@@H]3C(=O)C[C@H]4C[C@H](NCc5ccccn5)CC[C@]4(C)[C@H]3CC[C@]12C
> 32 µg/mL,> 32 µg/mL,> 32 µg/mL,> 32 µg/mL,> 32 µg/mL,> 32 µg/mL,32 µg/mL,> 32 µg/mL,32 µg/mL,16 µg/mL,32 µg/mL,16 µg/mL,> 32 µg/mL,32 µg/mL,8 µg/mL,8 µg/mL,8 µg/mL,CC(C)CCC[C@@H](C)[C@H]1CC[C@H]2[C@@H]3C(=O)C[C@H]4C[C@H](NCCc5ccccn5)CC[C@]4(C)[C@H]3CC[C@]12C
> 32 µg/mL,> 32 µg/mL,> 32 µg/mL,> 32 µg/mL,> 32 µg/mL,> 32 µg/mL,32 µg/mL,16 µg/mL,8 µg/mL,16 µg/mL,4 µg/mL,16 µg/mL,16 µg/mL,4 µg/mL,4 µg/mL,8 µg/mL,4 µg/mL,CC(C)CCC[C@@H](C)[C@H]1CC[C@H]2[C@@H]3[C@H](NCCn4ccnc4)C[C@H]4C[C@H](NCCn5ccnc5)CC[C@]4(C)[C@H]3CC[C@]12C
> 32 µg/mL,> 32 µg/mL,> 32 µg/mL,> 32 µg/mL,> 32 µg/mL,> 32 µg/mL,2 µg/mL,8 µg/mL,2 µg/mL,4 µg/mL,2 µg/mL,1 µg/mL,2 µg/mL,2 µg/mL,2 µg/mL,2 µg/mL,2 µg/mL,CC(C)CCC[C@@H](C)[C@H]1CC[C@H]2[C@@H]3[C@H](NCc4ccccn4)C[C@H]4C[C@H](NCc5ccccn5)CC[C@]4(C)[C@H]3CC[C@]12C
> 32 µg/mL,> 32 µg/mL,> 32 µg/mL,> 32 µg/mL,> 32 µg/mL,> 32 µg/mL,8 µg/mL,32 µg/mL,8 µg/mL,16 µg/mL,8 µg/mL,8 µg/mL,8 µg/mL,16 µg/mL,8 µg/mL,8 µg/mL,8 µg/mL,CC(C)CCC[C@@H](C)[C@H]1CC[C@H]2[C@@H]3[C@H](NCCc4ccccn4)C[C@H]4C[C@H](NCCc5ccccn5)CC[C@]4(C)[C@H]3CC[C@]12C

SMILES,MIC (Klebsiella aerogenes),MIC (Pseudomonas aeruginosa),MIC (Proteus vulgaris),MIC (Klebsiella pneumoniae),MIC (Salmonella typhimurium),MIC (Escherichia coli),MIC (Bacillus licheniformis),MIC (Bacillus cereus),MIC (Bacillus subtilis),MIC (Enterococcus faecalis),MIC (Kocuria rhizophila),MIC [1],MIC (Staphylococcus aureus [2]),MIC (Staphylococcus aureus [3]),MIC (Staphylococcus aureus [4]),MIC (Staphylococcus aureus [5]),MIC (Staphylococcus aureus [6])
"CC(C)CCC[C@@H](C)[C@H]1CC[C@H]2[C@@H]3[C@H](NCCc4cnc[nH]4)C[C@H]4C[C@H](NCCc5cnc[nH]5)CC[C@]4(C)[C@H]3CC[C@]12C [3ALPHA,7ALPHA-BIS[2-(5-IMIDAZOLYL)ETHYL]AMINO-5ALPHA-CHOLESTANE]",> 32 µg/mL,> 32 µg/mL,> 32 µg/mL,> 32 µg/mL,> 32 µg/mL,> 32 µg/mL,> 32 µg/mL,32 µg/mL,> 32 µg/mL,8 µg/mL,16 µg/mL,8 µg/mL,8 µg/mL,8 µg/mL,8 µg/mL,8 µg/mL,4 µg/mL
Cc1onc(-c2ccccc2)c1C(=O)N[C@@H]1C(=O)N2[C@@H]1SC(C)(C)[C@@H]2C(=O)O [OXACILLIN],> 32 µg/mL,> 32 µg/mL,> 32 µg/mL,> 32 µg/mL,> 32 µg/mL,> 32 µg/mL,> 32 µg/mL,> 32 µg/mL,16 µg/mL,32 µg/mL,0.03 µg/mL,> 32 µg/mL,> 32 µg/mL,4 µg/mL,0.5 µg/mL,0.25 µg/mL,0.25 µg/mL
CN[C@H](CC(C)C)C(=O)N[C@H]1C(=O)N[C@@H](CC(N)=O)C(=O)N[C@H]2C(=O)N[C@H]3C(=O)N[C@H](C(=O)N[C@H](C(=O)O)c4cc(O)cc(O)c4-c4cc3ccc4O)[C@H](O)c3ccc(c(Cl)c3)Oc3cc2cc(c3O[C@@H]2O[C@H](CO)[C@@H](O)[C@H](O)[C@H]2O[C@H]2C[C@](C)(N)[C@H](O)[C@H](C)O2)Oc2ccc(cc2Cl)[C@H]1O [VANCOMYCIN],> 32 µg/mL,> 32 µg/mL,> 32 µg/mL,> 32 µg/mL,> 32 µg/mL,> 32 µg/mL,> 32 µg/mL,> 32 µg/mL,2 µg/mL,2 µg/mL,1 µg/mL,,,,,,
